From US8680065B2, “Oligonucleotides of human endogenous retrovirus 9 (ERV-9) long terminal repeat (LTR) and methods of use” (The United States of America, as represented by the …, priority 2008, dated 2014) come the findings set out here.

The test system of series [1] is K562 cells (a myelogenous leukemia cell line). In words: Cancer cell proliferation, oligonucleotide in LIPOFECTAMINE, 48 hours, direct cell counting. The format is cell-based, human. The settings on record: P<0.05. Here is the method: FIG. 3 is a graph showing the effect of sense and antisense ERV-9 U3 oligonucleotides (SEQ ID NOs: 1 and 2, respectively) on proliferation of K562 cells (a myelogenous leukemia cell line). Cells (4×10^4) were treated with ERV-9 U3 sense or antisense oligonucleotide formulated in LIPOFECTAMINE™ at the concentrations shown for 48 hours.
(§1) To test the effect of the sense and antisense ERV-9 U3 oligonucleotides on proliferation of cancer cells, six different cancer cell lines were selected for transfection studies: HT1080, fibrosarcoma cells (FIG. 1); MDA-231, breast cancer cells (FIG. 2); K562, myelogenous leukemia cells (FIG. 3); LNcaP, prostate cancer cells (FIG. 4); HepG2, hepatocellular carcinoma cells (FIG. 5); and MCF-7, breast cancer cells (FIG. 6). Cells (4×10^4) were treated with ERV-9 U3 sense or antisense oligonucleotide formulated in LIPOFECTAMINE™ at an oligonucleotide concentration of 10, 20 or 30 μg/ml for 48 hours. Green fluorescent protein (GFP) sense oligonucleotide ([…]; SEQ ID NO: 3) was used as a control to measure the non-specific cytotoxicity of phosphorothioate-based oligonucleotides. Antisense oligonucleotides specific for Bcl-2 (G3139; TCTCCCAGCGTGCGCCAT; SEQ ID NO: 4), telomerase (GRN163; TAGGGTTAGACAA; SEQ ID NO: 5), and MDM2 ([…]; SEQ ID NO: 6) were also evaluated. […] After 48 hours of oligonucleotide treatment, cell proliferation was assessed by direct cell counting. Cell proliferation levels were expressed relative to cells transfected with 10 μg/ml GFP control oligonucleotide.

Series [2] relates to HT1080, MDA-231, K562, LNcaP, HepG2 and MCF-7 cancer cell lines. Nature of the series: Cancer cell proliferation, Example 1, summary over six cancer cell lines. The format is cell-based, human. Conditions: for proliferation relative to GFP control oligonucleotide: each of six cancer cell lines, 10, 20 or 30 μg/ml, 48 hours; for proliferation compared with Bcl-2, telomerase and MDM2-specific antisense oligonucleotides: six cancer cell lines, in most instances. As to the method:
as §1

Series [3] has as its system HT1080 cells. In words: Cancer cell proliferation, U3 and U5 oligonucleotides, 72 hours. The series is classed as cell-based, human. The settings on record: 20 μg/ml. As to the method:
FIG. 16 is a graph showing the effect of sense and antisense ERV-9 U3 (SEQ ID NOs: 1, 2, 7, 8, 9, and 10) and U5 (SEQ ID NOs: 11 and 12) oligonucleotides on proliferation of HT1080 cells. Cells (4×10^4) were treated with oligonucleotide formulated in LIPOFECTAMINE™ at a concentration of 20 μg/ml for 72 hours. GFP sense oligonucleotide was used as a control to measure the non-specific cytotoxicity of phosphorothioate-based oligonucleotides. Antisense oligonucleotides G3139, GRN163, and MDM2 were also evaluated. Cell proliferation levels were expressed relative to cells transfected with GFP oligonucleotide. All U3 and U5 sense and antisense oligonucleotides inhibited cell proliferation to a greater extent that GFP control. In addition, with the exception of the U5 sense oligonucleotide, all U3 and U5 oligonucleotides inhibited cell proliferation better than the G3139, GRN163 and MDM2 antisense oligonucleotides.
HT1080 or MDA-231 cells (4×10^4 cells) were treated with ERV-9 LTR (U3 or U5) sense or antisense oligonucleotides formulated in LIPOFECTAMINE™ at a concentration of 20 μg/ml for 72 hours. GFP sense oligonucleotide was used as a control to measure the non-specific cytotoxicity of phosphorothioates-based oligonucleotides. Relative cell proliferation levels were expressed as percentage of GFP oligonucleotide transfected control. The results are shown in FIG. 16 (HT1080 cells) and FIG. 17 (MDA-231 cells).

Series [4] concerns HT1080 tumor xenografts. In words: Growth of human tumor xenografts in SCID mice. The series is classed as in vivo. The settings on record: HT1080 xenograft; for tumor growth, combination treatment with VP16: 50 μg oligonucleotide and 50 ng VP16 once per day; for tumor burden compared to treatment with G3139: 50 μg oligonucleotide per mouse; for tumor growth (tumor size): 50 μg oligonucleotide per mouse injected around tumor once per day. Here is the method:
(§2) FIG. 18A is a pair of graphs showing the effect of sense and antisense ERV-9 U3 oligonucleotides (SEQ ID NOs: 1 and 2, respectively) on growth of MDA-231 (top) and HT1080 (bottom) tumor xenografts in SCID mice. Mice were injected with 50 μg of the indicated oligonucleotides once per day for 14 days (MDA-231) or 7 days (HT1080).
(§3) FIG. 18B is a pair of graphs showing the effect of sense and antisense ERV-9 U3 oligonucleotides (SEQ ID NOs: 1 and 2, respectively) on growth of MDA-231 (top) and HT1080 (bottom) tumor xenografts in SCID mice in combination with VP16. Mice were injected with 50 μg of the indicated oligonucleotides and 50 ng of VP16 once per day for 24 days (MDA-231) or 14 days (HT1080).
(§4) CB-17 prkdc(SCID) male, 4- to 6-week-old SCID mice were purchased from the Jackson Laboratory. Cultured cells (MDA-231 or HT1080 cells) were washed with and resuspended in serum-free media. The suspension (2×10^6 cells in 0.2 ml per mouse) was then injected into the chest area of the mice. The mice were monitored by measuring tumor growth and body weight and by general clinical observation. When tumor size reached approximately 4×4 mm, tumor-bearing mice were randomly divided into multiple treatment and control groups (five mice per group). All oligonucleotides, dissolved in PBS, were injected into the surrounding area of the tumor at doses of 50 μg per mouse (approximately 2.5 mg/kg), one time per day, 5 days/week until the tumor size of the control injected tumors reached about 20×20 mm (2×2 cm). The tumors were dissected from mice and weighed with the investigator blinded as to the treatment group. In combination therapy, 50 μg of the oligonucleotide (approximately 2.5 mg/kg) and 50 ng of VP16 (approximately 2.5 μg/kg), both dissolved in PBS, were injected together (one time per day, 5 days/week) into the surrounding area of the tumor to all groups.

Series [5] concerns MDA-231 tumor xenografts. Nature of the series: Growth of human tumor xenografts in SCID mice. The series is classed as in vivo. The settings on record: MDA-231 xenograft; for tumor growth, combination treatment with VP16: 50 μg oligonucleotide and 50 ng VP16 once per day; for tumor burden compared to treatment with G3139: 50 μg oligonucleotide per mouse; for tumor growth (tumor size): 50 μg oligonucleotide per mouse injected around tumor once per day. Here is the method:
as §2, §3, §4
(In general: Xenograft models place foreign cells or tissue in a host animal.)

Setting [6] is: oligonucleotide 10 μg/ml and 20 μg/ml.

Regarding “U3S: ERV-9 LTR U3 sense oligonucleotide CTCAAGGTTTGTAAACACACCAATCAG, phosphorothioate internucleoside linkages at each position (all phosphorothioate, sugars by position and methylation of C not given here) [Oligo U3S]”, the “cell proliferation relative to GFP oligonucleotide” value in series [1] (setting [6]) is on record as “inhibited cell proliferation better than GFP control oligonucleotide”. The “cell proliferation relative to GFP oligonucleotide” value in series [1] (oligonucleotide 30 μg/ml) is “inhibited proliferation better than GFP control and G3139, GRN163 and MDM2 antisense oligonucleotides”. Also, in series [2], the “proliferation relative to GFP control oligonucleotide” value is “resulted in a significant decrease in proliferation of each cancer cell line tested, relative to GFP control oligonucleotide”; the “proliferation compared with Bcl-2, telomerase and MDM2-specific antisense oligonucleotides” value was “inhibited proliferation to a greater extent than the Bcl-2, telomerase and MDM2-specific antisense oligonucleotides”. The “cell proliferation relative to GFP oligonucleotide transfected control” value in series [3] was “inhibited cell proliferation better than G3139, GRN163 and MDM2 oligonucleotides”. Besides, in series [4], the “tumor growth, combination treatment with VP16” value (“tumor growth … with VP16” below) is reported as “inhibited tumor growth when co-administered with VP16 better than GFP oligonucleotide or G3139 antisense oligonucleotide”; the “tumor burden compared to treatment with G3139” value was “had reduced tumor burden for both MDA-231 and HT1080 tumors, although this did not reach statistical significance”; the “tumor growth (tumor size)” value was “inhibited tumor growth better than GFP oligonucleotide or G3139 antisense oligonucleotides”. Also, in series [5], the “tumor growth … with VP16” value was “inhibited tumor growth when co-administered with VP16 better than GFP oligonucleotide or G3139 antisense oligonucleotide”; the “tumor burden compared to treatment with G3139” value is “had reduced tumor burden for both MDA-231 and HT1080 tumors, although this did not reach statistical significance”; the “tumor growth (tumor size)” value is “inhibited tumor growth better than GFP oligonucleotide or G3139 antisense oligonucleotides”.

With “U3AS: ERV-9 LTR U3 antisense oligonucleotide CTGATTGGTGTGTTTACAAACCTTGAG, phosphorothioate internucleoside linkages at each position (all phosphorothioate, sugars by position and methylation of C not given here) [Oligo U3AS]”, the “cell proliferation relative to GFP oligonucleotide” value in series [1] (setting [6]) is given as “inhibited cell proliferation better than GFP control oligonucleotide”. In addition, in series [1] (oligonucleotide 30 μg/ml), the “cell proliferation relative to GFP oligonucleotide” value is “inhibited proliferation better than GFP control and G3139, GRN163 and MDM2 antisense oligonucleotides”. In series [2], the “proliferation relative to GFP control oligonucleotide” value is “resulted in a significant decrease in proliferation of each cancer cell line tested, relative to GFP control oligonucleotide”; the “proliferation compared with Bcl-2, telomerase and MDM2-specific antisense oligonucleotides” value was “inhibited proliferation to a greater extent than the Bcl-2, telomerase and MDM2-specific antisense oligonucleotides”. The “tumor cell proliferation, antisense relative to sense oligonucleotide” value in series [2] (tumor cells) is reported as “more potently inhibited tumor cell proliferation (relative to the sense oligonucleotide)”. In series [3], the “cell proliferation relative to GFP oligonucleotide transfected control” value is “inhibited cell proliferation better than G3139, GRN163 and MDM2 oligonucleotides”. Besides, in series [4], the “tumor growth … with VP16” value is listed as “inhibited tumor growth when co-administered with VP16 better than GFP oligonucleotide or G3139 antisense oligonucleotide”; the “tumor burden compared to treatment with G3139” value was “had reduced tumor burden for both MDA-231 and HT1080 tumors, although this did not reach statistical significance”; the “tumor growth (tumor size)” value is recorded as “inhibited tumor growth better than GFP oligonucleotide or G3139 antisense oligonucleotides”. In series [5], the “tumor growth … with VP16” value is on record as “inhibited tumor growth when co-administered with VP16 better than GFP oligonucleotide or G3139 antisense oligonucleotide”; the “tumor burden compared to treatment with G3139” value was “had reduced tumor burden for both MDA-231 and HT1080 tumors, although this did not reach statistical significance”; the “tumor growth (tumor size)” value is “inhibited tumor growth better than GFP oligonucleotide or G3139 antisense oligonucleotides”.
